Measurements taken from ChEMBL document CHEMBL5260811, “Drug development against tuberculosis: Impact of alkaloids” (Eur J Med Chem, 2017).
Converted amounts (≈) assume the structure as drawn. Starred links: 1 amine or outer side, 2 acyl side, 3 side chain; linkers in the order of their positions; H or OH if unused. Positions of bridges follow the written chain, without caps; N, C: chain ends. Non-standard residues stand in square brackets, D forms with d. Residues, ends and D or L forms follow the SMILES beside them. ξ: configuration not given here. *: point of attachment. X2 = N=C1NCCC([C@H](N[*:1])C(=O)[*:2])N1; ΔAla(Z-3-ureido) = NC(=O)N/C=C(\N)C(=O)O; ξβ3hOrn = NCCCC(N)CC(=O)*; Dap = NC[C@H](N)C(=O)O

Legend:
[1] = tested on: Mycobacterium tuberculosis; assay: Antimycobacterial activity against Mycobacterium tuberculosis Rv0701 harbouring rplC gene; format: functional
[2] = tested on: Mycobacterium tuberculosis; assay: Antimycobacterial activity against Mycobacterium tuberculosis Rv0667 harbouring rpoB gene; format: functional
[3] = tested on: Mycobacterium tuberculosis; assay: Antimycobacterial activity against Mycobacterium tuberculosis Rv0503c harbouring cmaA2 gene; format: functional
[4] = tested on: Mycobacterium tuberculosis; assay: Antimycobacterial activity against rifampicin-resistant Mycobacterium tuberculosis; format: functional
[5] = tested on: Mycobacterium tuberculosis; assay: Antimycobacterial activity against Mycobacterium tuberculosis harbouring thyA gene; format: functional
[6] = tested on: Mycobacterium tuberculosis; assay: Antimycobacterial activity against multi-drug resistant Mycobacterium tuberculosis clinical isolates; format: functional
[7] = tested on: Mycobacterium tuberculosis; assay: Antimycobacterial activity against extensively drug resistant Mycobacterium tuberculosis clinical isolates; format: functional
[8] = tested on: Mycobacterium tuberculosis; assay: Antimycobacterial activity against Mycobacterium tuberculosis Rv3790 harbouring DprE1 gene; format: functional
[9] = tested on: Mycobacterium tuberculosis; assay: Antimycobacterial activity against Mycobacterium tuberculosis Rv2163c harbouring pbpB gene; format: functional
[10] = tested on: Mycobacterium tuberculosis; assay: Antimycobacterial activity against Mycobacterium tuberculosis Rv2163c harbouring ftsI gene; format: functional
[11] = tested on: Mycobacterium tuberculosis; assay: Antimycobacterial activity against Mycobacterium tuberculosis Rv0005 harbouring gyrB gene; format: functional
[12] = tested on: Mycobacterium tuberculosis; assay: Antimycobacterial activity against Mycobacterium tuberculosis Rv0006 harbouring gyrA gene; format: functional
[13] = tested on: Mycobacterium tuberculosis; assay: Antimycobacterial activity against Mycobacterium tuberculosis harbouring katG gene; format: functional
[14] = tested on: Mycobacterium tuberculosis; assay: Antimycobacterial activity against Mycobacterium tuberculosis harbouring fdxA gene; format: functional
[15] = tested on: Mycobacterium tuberculosis; assay: Antimycobacterial activity against Mycobacterium tuberculosis Rv1305 harbouring atpE gene; format: functional
[16] = tested on: Mycobacterium tuberculosis; assay: Antimycobacterial activity against drug-resistant Mycobacterium tuberculosis; format: functional
[17] = tested on: Mycobacterium tuberculosis; assay: Antimycobacterial activity against Mycobacterium tuberculosis harbouring rrs gene; format: functional
[18] = tested on: Mycobacterium tuberculosis; assay: Antimycobacterial activity against Mycobacterium tuberculosis Rv2196 harbouring qcrB gene; format: functional
[19] = tested on: Mycobacterium tuberculosis; assay: microbe, parasite or virus in culture
[20] = tested on: Mycobacterium tuberculosis; assay: Antimycobacterial activity against Mycobacterium tuberculosis Rv2156c harbouring mraY gene; format: functional
[21] = tested on: Mycobacterium tuberculosis; assay: Antimycobacterial activity against Mycobacterium tuberculosis Rv0706 harbouring rplV gene; format: functional
[22] = tested on: Mycobacterium tuberculosis; assay: Antimycobacterial activity against Mycobacterium tuberculosis Rv2068c harbouring blaC gene; format: functional
[23] = tested on: Mycobacterium tuberculosis; assay: Antimycobacterial activity against Mycobacterium tuberculosis Rv0050 harbouring ponA1 gene; format: functional

CC(=O)NC[C@H]1CN(c2ccc(N3CCOCC3)c(F)c2)C(=O)O1 [LINEZOLID]
MIC [1]: 0.5 µg/mL (≈ 1.48 µM)

CO[C@H]1/C=C/O[C@@]2(C)Oc3c(C)c(O)c4c(c3C2=O)C2=NC3(CCN(CC(C)C)CC3)NC2=C(NC(=O)/C(C)=C\C=C\[C@H](C)[C@H](O)[C@@H](C)[C@@H](O)[C@@H](C)[C@H](OC(C)=O)[C@@H]1C)C4=O [RIFABUTIN]
MIC [2]: 0.015 µg/mL (≈ 0.0177 µM)

CC(=O)Nc1ccc(/C=N/NC(N)=S)cc1 [AMITHIOZONE]
MIC [3]: 0.1 µg/mL (≈ 0.423 µM)

COc1ccc2c3c(c4cc(OC)c(OC)cc4c2c1)CN1CCCC1C3 (stereo not drawn) [(+/-)-DEOXYTYLOPHORININE]
MIC [4]: 6.25 µg/mL (≈ 17.2 µM)

Nc1ccc(C(=O)O)c(O)c1 [AMINOSALICYLIC ACID]
MIC [5]: 1 µg/mL (≈ 6.53 µM)

C[C@H]1COC2(CCN(c3nc(=O)c4cc(C(F)(F)F)cc([N+](=O)[O-])c4s3)CC2)O1 [BTZ-043]
MIC [6]: 0.0001 µg/mL (≈ 0.000232 µM) | MIC [7]: 0.001 µg/mL (≈ 0.00232 µM) | MIC [8]: 0.001 µg/mL (≈ 0.00232 µM)

C[C@@H](O)[C@H]1C(=O)N2C(C(=O)O)=C(SCCNC=N)C[C@H]12 [IMIPENEM ANHYDROUS]
MIC [9]: 0.16 µg/mL | MIC [10]: 0.16 µg/mL (≈ 0.534 µM)

CC1COc2c(N3CCN(C)CC3)c(F)cc3c(=O)c(C(=O)O)cn1c23 (configuration not stated) [OFLOXACIN]
MIC [11]: 0.125 µg/mL (≈ 0.346 µM) | MIC [12]: 0.125 µg/mL (≈ 0.346 µM)

CCOC(=O)NC(=O)c1ccsc1NC(=O)c1nc2ccccc2s1
MIC [13]: 0.01 µg/mL (≈ 0.0266 µM) | MIC [8]: 0.01 µg/mL (≈ 0.0266 µM) | MIC [14]: 0.01 µg/mL (≈ 0.0266 µM)

COc1nc2ccc(Br)cc2cc1[C@@H](c1ccccc1)[C@@](O)(CCN(C)C)c1cccc2ccccc12 [BEDAQUILINE]
MIC [15]: 0.063 µg/mL (≈ 0.113 µM) | MIC [16]: 60 µg/mL (≈ 108 µM)

NC[C@H]1O[C@H](O[C@H]2[C@H](O)[C@@H](O[C@H]3O[C@H](CO)[C@@H](O)[C@H](N)[C@H]3O)[C@H](N)C[C@@H]2N)[C@H](O)[C@@H](O)[C@@H]1O [KANAMYCIN]
MIC [17]: 1 µg/mL (≈ 2.06 µM)

N=C1NCCC([C@@H]2NC(=O)/C(=C/NC(N)=O)NC(=O)[C@H](CNC(=O)CC(N)CCCN)NC(=O)[C@H](CO)NC(=O)[C@@H](N)CNC2=O)N1 (stereo partly drawn) (H-[Dap]S[Dap](ξβ3hOrn)[ΔAla(Z-3-ureido)][X2]; lactam 1-C)
MIC [17]: 1.25 µg/mL (≈ 1.87 µM)

CCc1nc2ccc(Cl)cn2c1C(=O)NCc1ccc(N2CCC(c3ccc(OC(F)(F)F)cc3)CC2)cc1 [TELACEBEC]
MIC [18]: 0.0027 µM (≈ 0.0015 µg/mL)

CO[C@H]1/C=C/O[C@@]2(C)Oc3c(C)c(O)c4c(O)c(c(/C=N/N5CCN(C)CC5)c(O)c4c3C2=O)NC(=O)/C(C)=C\C=C\[C@H](C)[C@H](O)[C@@H](C)[C@@H](O)[C@@H](C)[C@H](OC(C)=O)[C@@H]1C [RIFAMPIN]
MIC [19]: 0.05 µg/mL (≈ 0.0608 µM)

CCCCCCCCCC(=O)O[C@H]1[C@@H](OC)[C@H]([C@H](O[C@@H]2OC(C(=O)N[C@@H]3CCC[C@H](C)NC3=O)=C[C@@H](O)[C@H]2O)[C@H](N)O)O[C@@H]1n1ccc(=O)[nH]c1=O
MIC [20]: 0.12 µg/mL (≈ 0.162 µM)

CC[C@H]1OC(=O)[C@H](C)[C@@H](O[C@H]2C[C@@](C)(OC)[C@@H](O)[C@H](C)O2)[C@H](C)[C@@H](O[C@@H]2O[C@H](C)C[C@H](N(C)C)[C@H]2O)[C@](C)(OC)C[C@@H](C)C(=O)[C@H](C)[C@@H](O)[C@]1(C)O [CLARITHROMYCIN]
MIC [21]: 1 µg/mL (≈ 1.34 µM)

O=C(O)[C@H]1/C(=C/CO)O[C@@H]2CC(=O)N21 [CLAVULANIC ACID]
MIC [9]: 0.23 µM | MIC [22]: 0.23 µM (≈ 0.0458 µg/mL) | MIC [23]: 0.23 µM (≈ 0.0458 µg/mL)

CO[C@H]1/C=C/O[C@@]2(C)Oc3c(C)c(O)c4c(O)c(c(/C=N/N5CCN(C6CCCC6)CC5)c(O)c4c3C2=O)NC(=O)/C(C)=C\C=C\[C@H](C)[C@H](O)[C@@H](C)[C@@H](O)[C@@H](C)[C@H](OC(C)=O)[C@@H]1C [RIFAPENTINE]
MIC [2]: 0.03 µg/mL (≈ 0.0342 µM)
